Results published in US20240352016A1, “A CYCLIN-DEPENDENT KINASE INHIBITOR” (TAIZHOU EOC PHARMA CO., LTD., priority 2021, published 2024).
Counter-ions that a name gives are not always drawn.

Assays:
CDK7/Cyclin H/MAT1 = target: T1, CDK7/Cyclin H/MAT1 (Homo sapiens, UniProt P50613); assay: CDK kinase activity mobility shift assay (MSA); format: biochemical; conditions: The CDK may be CDK7; mobility shift assay, 2 mM ATP, 3 nM CDK/Cyclin, 27° C. for 40 min; read-out: IC50 (CDK inhibition)
T1 construct: made in house; host or cells: insect cell
Description: Human CDKs, cyclins and other partner proteins were expressed in insect cell, purified individually, reconstituted and then purified to homogeneity before being used for kinase activity assay.
Kinase activity of CDKs were determined by mobility shift assay (MSA), in which the formation of a phosphorylated fluorescence-labelled peptide in reaction mixture was monitored through capillary electrophoresis in a microfluidic environment. […] The mixtures were incubated at 27° C. for 40 min before being quenched with 4 μl 80 mM EDTA, then read on a LabChip EZ Reader II (Caliper Life Science). IC50 of compound for CDKs was calculated by Prism (GraphPad) using a four-parameter nonlinear curve fit.

HCC70 = assay: Inhibition of cell proliferation (CyQuant), HCC70; format: cell-based; conditions: Homo sapiens; HCC70 breast cancer cell line, 120 hour, CyQuant assay kit
Description: (§1) Exemplary compounds of the invention were tested at different concentrations (from 10 μM to 610 pM; 4-fold serial dilutions) for their ability to inhibit the proliferation of various cancer cell lines. Known kinase inhibitor staurosporine were used as positive controls. Cells were grown in the indicated media listed below. All cell lines were supplemented with FBS (Life Technologies) and 100 U-mL^−1 penicillin, 100 μg·mL^−1 streptomycin (Invitrogen) and cultured at 37° C. in a humidified chamber in the presence of 5% CO2. Proliferation assays were conducted over a 120 hour time period. CyQuant assay kit (ThermoFisher) was used to assess the anti-proliferative effects of the compounds following manufacturer's directions.
(§2) The following cancer cell lines may be tested with the exemplary media conditions indicated:
(§3) Exemplary results of these assays are set forth in Tables 3, where “A” represents an IC50 value of less than 0.2 μM; “B” represents an IC50 value of between 0.2 μM and 5 μM, inclusive; and “C” represents an IC50 value of greater than 5 μM. “NT” represents that the specified compound was not tested in the specified assay.

OVCAR3 = assay: Inhibition of cell proliferation (CyQuant), OVCAR3; format: cell-based; conditions: Homo sapiens, OVCAR-3; OVCAR3 ovarian cancer cell line, 120 hour, CyQuant assay kit
Description: as §1, §2
• OVCAR3: RPMI 1640+0.01 mg/mi bovine insulin+20% FBS+1% Glutamax
as §3

T1 sequence (P50613 whole entry): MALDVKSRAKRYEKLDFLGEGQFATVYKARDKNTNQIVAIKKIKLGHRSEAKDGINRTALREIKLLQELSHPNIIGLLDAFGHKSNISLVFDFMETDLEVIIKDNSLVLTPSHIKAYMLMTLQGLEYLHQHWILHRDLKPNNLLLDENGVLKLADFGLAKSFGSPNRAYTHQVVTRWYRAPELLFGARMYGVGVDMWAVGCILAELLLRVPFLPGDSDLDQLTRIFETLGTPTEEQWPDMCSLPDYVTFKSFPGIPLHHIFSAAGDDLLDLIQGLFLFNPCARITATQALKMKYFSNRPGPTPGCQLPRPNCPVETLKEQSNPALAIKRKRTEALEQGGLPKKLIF
T1 sequence (P51946 whole entry partner): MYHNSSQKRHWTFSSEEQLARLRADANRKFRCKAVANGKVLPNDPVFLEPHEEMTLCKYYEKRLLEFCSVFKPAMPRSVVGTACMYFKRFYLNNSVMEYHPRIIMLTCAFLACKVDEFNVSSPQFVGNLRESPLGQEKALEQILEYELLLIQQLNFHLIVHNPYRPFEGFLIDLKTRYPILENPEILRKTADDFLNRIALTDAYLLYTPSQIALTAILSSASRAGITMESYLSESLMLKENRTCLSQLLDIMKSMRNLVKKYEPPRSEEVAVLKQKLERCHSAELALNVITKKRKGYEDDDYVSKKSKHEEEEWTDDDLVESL
T1 sequence (P51948 whole entry partner): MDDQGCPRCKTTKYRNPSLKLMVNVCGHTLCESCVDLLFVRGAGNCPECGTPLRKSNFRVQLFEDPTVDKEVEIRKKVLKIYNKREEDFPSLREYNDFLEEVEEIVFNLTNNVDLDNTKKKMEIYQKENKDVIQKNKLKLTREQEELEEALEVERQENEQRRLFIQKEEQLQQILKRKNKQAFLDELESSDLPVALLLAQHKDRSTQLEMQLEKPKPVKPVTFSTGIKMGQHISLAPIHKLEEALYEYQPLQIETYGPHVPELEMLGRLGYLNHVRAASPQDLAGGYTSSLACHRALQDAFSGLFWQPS

| SMILES | IC50 (CDK7/Cyclin H/MAT1) [nM] | IC50 (HCC70) [nM] | IC50 (OVCAR3) [nM] |
| --- | --- | --- | --- |
| CCn1cnc2c(NCc3ccccc3-n3cccn3)nc(N3CCC(N)CC3)nc21 [Compound I-7, N-(2-(1H-pyrazol-1-yl)benzyl)-2-(4-aminopiperidin-1-yl)-9-ethyl-9H-purin-6-amine hydrochloride] | < 100 | 200 to 5000 | 200 to 5000 |
| CC(C)n1cnc2c(NCc3ccccc3-n3ccc(C(=O)N4CCN(CCO)CC4)n3)nc(N3CCC(N)CC3)nc21 [Compound I-2, (1-(2-(((2-(4-aminopiperidin-1-yl)-9-isopropyl-9H-purin-6-yl)amino)methyl)phenyl)-1H-pyrazol-3-yl)(4-(2-hydroxyethyl)piperazin-1-yl)methanone] | < 100 | 200 to 5000 | 200 to 5000 |
| CC(C)n1nccc1-c1ncccc1CNc1nc(N2CCC(N)CC2)nc2c1ncn2C(C)C [Compound I-6, 2-(4-aminopiperidin-1-yl)-9-isopropyl-N-((2-(1-isopropyl-1H-pyrazol-5-yl)pyridin-3-yl)methyl)-9H-purin-6-amine] | < 100 | < 200 | < 200 |
| CNC1CCN(c2nc(NCc3ccccc3-n3cccn3)c3ncn(C(C)C)c3n2)CC1 [Compound I-19, N-(2-(1H-pyrazol-1-yl)benzyl)-9-isopropyl-2-(4-(methylamino)piperidin-1-yl)-9H-purin-6-amine] | < 100 | < 200 | < 200 |
| CC(C)N1CCN(c2ccn(-c3ccccc3CNc3nc(N4CCC(N)CC4)nc4c3ncn4C(C)C)n2)CC1 [Compound I-4, 2-(4-aminopiperidin-1-yl)-9-isopropyl-N-(2-(3-(4-isopropylpiperazin-1-yl)-1H-pyrazol-1-yl)benzyl)-9H-purin-6-amine hydrochloride] | < 100 | < 200 | < 200 |
| CC(C)n1cnc2c(NCc3ccccc3-n3cccn3)nc(N3CCC[C@H](N)C3)nc21 [Compound I-10, (S)—N-(2-(1H-pyrazol-1-yl)benzyl)-2-(3-aminopiperidin-1-yl)-9-isopropyl-9H-purin-6-amine] | < 100 | 200 to 5000 | 200 to 5000 |
| CC(C)n1cnc2c(NCc3ccccc3-n3ccc(C(=O)N4CCN(C)CC4)n3)nc(N3CCC(N)CC3)nc21 [Compound I-3, (1-(2-(((2-(4-aminopiperidin-1-yl)-9-isopropyl-9H-purin-6-yl)amino)methyl)phenyl)-1H-pyrazol-3-yl)(4-methylpiperazin-1-yl)methanone] | < 100 | 200 to 5000 | 200 to 5000 |
| CC(C)n1cnc2c(NCc3ccccc3-n3ccc(C(C)(C)O)n3)nc(N3CCC(N)CC3)nc21 [Compound I-16, 2-(1-(2-(((2-(4-aminopiperidin-1-yl)-9-isopropyl-9H-purin-6-yl)amino)methyl)phenyl)-1H-pyrazol-3-yl)propan-2-ol] | < 100 | < 200 | < 200 |
| CC(C)n1cnc2c(NCc3ccccc3-c3ccnn3C)nc(N3CCC(N)CC3)nc21 [Compound I-12, 2-(4-aminopiperidin-1-yl)-9-isopropyl-N-(2-(1-methyl-1H-pyrazol-5-yl)benzyl)-9H-purin-6-amine] | < 100 | < 200 | < 200 |
| CC(C)n1cnc2c(NCc3ccccc3-c3cnn(C)c3)nc(N3CCC(N)CC3)nc21 [Compound I-8, 2-(4-aminopiperidin-1-yl)-9-isopropyl-N-(2-(1-methyl-1H-pyrazol-4-yl)benzyl)-9H-purin-6-amine] | < 100 | 200 to 5000 | < 200 |
